Where two headings read alike, the source gives them in different places.
System: HBV viral load production from HepAD38 cells
Assay: Viral production from HepAD38 cells: viral load in supernatant by qPCR of the HBV core sequence
Type: cell-based
Details: 5 days incubation, qPCR of supernatant HBV DNA vs DMSO control, read-out: viral load lowering EC50 (Activity)
In short: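 HepAD38 cells seeded at 50,000/well in tetracycline-free medium with 2% FBS, treated with compounds (final top concentration 10 μM) for 5 days at 37 °C. Supernatant HBV DNA quantified by TaqMan qPCR of core sequence against HBV DNA standards, relative to DMSO controls; EC50 by four-parameter logistic fit.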

[1] = Hepatitis B virus, HePAD38, 120 h

| SMILES | EC50 [1] | EC50 |
| --- | --- | --- |
| CC(C)OC1CCC(NC(=O)C2CC(C(=O)Nc3ccc(F)c(Cl)c3)N(C)S(=O)(=O)N2)CC1 (single isomer, unassigned) [Compound 862-ISOMER-A, N3-(3-chloro-4-fluoro-phenyl)-N5-(4-isopropoxycyclohexyl)-2-methyl-1,1-dioxo-1,2,6-thiadiazinane-3,5-dicarboxamide] | 100 to 10000 nM |  |
| CC(C)OC1CCC(NC(=O)C2CC(C(=O)Nc3ccc(F)c(Cl)c3)N(C)S(=O)(=O)N2)CC1 (single isomer, unassigned) [Compound 862-ISOMER-B, N3-(3-chloro-4-fluoro-phenyl)-N5-(4-isopropoxycyclohexyl)-2-methyl-1,1-dioxo-1,2,6-thiadiazinane-3,5-dicarboxamide] |  | < 50 nM |
| CCN1C(C(=O)Nc2ccc(F)c(Cl)c2)CC(C(=O)NCc2cnc(C)s2)NS1(=O)=O (single isomer, unassigned) [Compound 888-ISOMER-A, N3-(3-chloro-4-fluoro-phenyl)-2-ethyl-N5-[(2-methylthiazol-5-yl)methyl]-1,1-dioxo-1,2,6-thiadiazinane-3,5-dicarboxamide] | 100 to 10000 nM |  |
| CCN1C(C(=O)Nc2ccc(F)c(Cl)c2)CC(C(=O)NCc2cnc(C)s2)NS1(=O)=O (single isomer, unassigned) [Compound 888-ISOMER-B, N3-(3-chloro-4-fluoro-phenyl)-2-ethyl-N5-[(2-methylthiazol-5-yl)methyl]-1,1-dioxo-1,2,6-thiadiazinane-3,5-dicarboxamide] |  | < 50 nM |
| CCN1C(C(=O)Nc2ccc(F)c(Cl)c2)CC(C(=O)NC2CCN(C(=O)OC)CC2)NS1(=O)=O (single isomer, unassigned) [Compound 890-ISOMER-A, methyl 4-[[5-[(3-chloro-4-fluoro-phenyl)carbamoyl]-6-ethyl-1,1-dioxo-1,2,6-thiadiazinane-3-carbonyl]amino]piperidine-1-carboxylate] | < 50 nM |  |
| CCN1C(C(=O)Nc2ccc(F)c(Cl)c2)CC(C(=O)NC2CCN(C(=O)OC)CC2)NS1(=O)=O (single isomer, unassigned) [Compound 890-ISOMER-B, methyl 4-[[5-[(3-chloro-4-fluoro-phenyl)carbamoyl]-6-ethyl-1,1-dioxo-1,2,6-thiadiazinane-3-carbonyl]amino]piperidine-1-carboxylate] |  | 100 to 10000 nM |
| Cc1ncc(CNC(=O)C2CC(C(=O)Nc3ccc(F)c(Cl)c3)N(CC(F)(F)F)S(=O)(=O)N2)s1 (single isomer, unassigned) [Compound 891-ISOMER-A, N3-(3-chloro-4-fluoro-phenyl)-N5-[(2-methylthiazol-5-yl)methyl]-1,1-dioxo-2-(2,2,2-trifluoroethyl)-1,2,6-thiadiazinane-3,5-dicarboxamide] | 100 to 10000 nM |  |
| COCCN1C(C(=O)Nc2ccc(F)c(Cl)c2)CC(C(=O)NC2CCN(C(=O)OC)CC2)NS1(=O)=O (single isomer, unassigned) [Compound 896-ISOMER-A, methyl 4-[[5-[(3-chloro-4-fluoro-phenyl)carbamoyl]-6-(2-methoxyethyl)-1,1-dioxo-1,2,6-thiadiazinane-3-carbonyl]amino]piperidine-1-carboxylate] | 50 to 100 nM |  |
| CN1C(C(=O)Nc2ccc(F)c(Cl)c2)CC(C(=O)NCc2ccccc2-n2ccnc2)NS1(=O)=O (single isomer, unassigned) [Compound 910-ISOMER-B, N3-(3-chloro-4-fluoro-phenyl)-N5-[(2-imidazol-1-ylphenyl)methyl]-2-methyl-1,1-dioxo-1,2,6-thiadiazinane-3,5-dicarboxamide] | 100 to 10000 nM |  |
| CN1C(C(=O)Nc2ccc(F)c(Cl)c2)CC(C(=O)NCc2cnc(-c3cccnc3)s2)NS1(=O)=O (single isomer, unassigned) [Compound 911-ISOMER-A, N3-(3-chloro-4-fluoro-phenyl)-2-methyl-1,1-dioxo-N5-[[2-(3-pyridyl)thiazol-5-yl]methyl]-1,2,6-thiadiazinane-3,5-dicarboxamide] | 100 to 10000 nM |  |
| CN1C(C(=O)Nc2ccc(F)c(Cl)c2)CC(C(=O)NCc2cnc(-c3ccccc3Cl)s2)NS1(=O)=O (single isomer, unassigned) [Compound 912-ISOMER-A, N3-(3-chloro-4-fluoro-phenyl)-N5-[[2-(2-chlorophenyl)thiazol-5-yl]methyl]-2-methyl-1,1-dioxo-1,2,6-thiadiazinane-3,5-dicarboxamide] | 100 to 10000 nM |  |
| CN1C(C(=O)Nc2ccc(F)c(Cl)c2)CC(C(=O)NCc2cnc(-c3ccccc3Cl)s2)NS1(=O)=O (single isomer, unassigned) [Compound 912-ISOMER-B, N3-(3-chloro-4-fluoro-phenyl)-N5-[[2-(2-chlorophenyl)thiazol-5-yl]methyl]-2-methyl-1,1-dioxo-1,2,6-thiadiazinane-3,5-dicarboxamide] |  | < 50 nM |
| CN1C(C(=O)Nc2ccc(F)c(Cl)c2)CC(C(=O)NCc2cnc(-c3cccc(Cl)c3)s2)NS1(=O)=O (single isomer, unassigned) [Compound 913-ISOMER-A, N3-(3-chloro-4-fluoro-phenyl)-N5-[[2-(3-chlorophenyl)thiazol-5-yl]methyl]-2-methyl-1,1-dioxo-1,2,6-thiadiazinane-3,5-dicarboxamide] | 100 to 10000 nM |  |
| Cc1nc(-c2ccccc2)sc1CNC(=O)C1CC(C(=O)Nc2ccc(F)c(Cl)c2)N(C)S(=O)(=O)N1 (single isomer, unassigned) [Compound 914-ISOMER-A, N3-(3-chloro-4-fluoro-phenyl)-2-methyl-N5-[(4-methyl-2-phenyl-thiazol-5-yl)methyl]-1,1-dioxo-1,2,6-thiadiazinane-3,5-dicarboxamide] | < 50 nM |  |
| Cc1nc(-c2ccccc2)sc1CNC(=O)C1CC(C(=O)Nc2ccc(F)c(Cl)c2)N(C)S(=O)(=O)N1 (single isomer, unassigned) [Compound 914-ISOMER-B, N3-(3-chloro-4-fluoro-phenyl)-2-methyl-N5-[(4-methyl-2-phenyl-thiazol-5-yl)methyl]-1,1-dioxo-1,2,6-thiadiazinane-3,5-dicarboxamide] |  | 50 to 100 nM |
| CN1C(C(=O)Nc2ccc(F)c(Cl)c2)CC(C(=O)NCc2cnc(-c3ccc(F)cc3)s2)NS1(=O)=O (single isomer, unassigned) [Compound 916-ISOMER-A, N3-(3-chloro-4-fluoro-phenyl)-N5-[[2-(4-fluorophenyl)thiazol-5-yl]methyl]-2-methyl-1,1-dioxo-1,2,6-thiadiazinane-3,5-dicarboxamide] | 100 to 10000 nM |  |
| CN1C(C(=O)Nc2ccc(F)c(Cl)c2)CC(C(=O)NCc2cnc(-c3ccc(F)cc3)s2)NS1(=O)=O (single isomer, unassigned) [Compound 916-ISOMER-B, N3-(3-chloro-4-fluoro-phenyl)-N5-[[2-(4-fluorophenyl)thiazol-5-yl]methyl]-2-methyl-1,1-dioxo-1,2,6-thiadiazinane-3,5-dicarboxamide] |  | < 50 nM |
| CN1C(C(=O)Nc2ccc(F)c(Cl)c2)CC(C(=O)NCc2cnc(-c3ccc(C#N)cc3F)s2)NS1(=O)=O (single isomer, unassigned) [Compound 920-ISOMER-A, N3-(3-chloro-4-fluoro-phenyl)-N5-[[2-(4-cyano-2-fluoro-phenyl)thiazol-5-yl]methyl]-2-methyl-1,1-dioxo-1,2,6-thiadiazinane-3,5-dicarboxamide] | 100 to 10000 nM |  |
| CN1C(C(=O)Nc2ccc(F)c(Cl)c2)CC(C(=O)NCc2cnc(-c3ccc(C#N)cc3F)s2)NS1(=O)=O (single isomer, unassigned) [Compound 920-ISOMER-B, N3-(3-chloro-4-fluoro-phenyl)-N5-[[2-(4-cyano-2-fluoro-phenyl)thiazol-5-yl]methyl]-2-methyl-1,1-dioxo-1,2,6-thiadiazinane-3,5-dicarboxamide] |  | < 50 nM |
| CCN1CCC(Oc2ccc(-c3ncc(CNC(=O)C4CC(C(=O)Nc5ccc(F)c(Cl)c5)N(C)S(=O)(=O)N4)s3)cc2)CC1 (single isomer, unassigned) [Compound 921-ISOMER-A, N3-(3-chloro-4-fluoro-phenyl)-N5-[[2-[4-[(1-ethyl-4-piperidyl)oxy]phenyl]thiazol-5-yl]methyl]-2-methyl-1,1-dioxo-1,2,6-thiadiazinane-3,5-dicarboxamide] | < 50 nM |  |
| CCN1CCC(Oc2ccc(-c3ncc(CNC(=O)C4CC(C(=O)Nc5ccc(F)c(Cl)c5)N(C)S(=O)(=O)N4)s3)cc2)CC1 (single isomer, unassigned) [Compound 921-ISOMER-B, N3-(3-chloro-4-fluoro-phenyl)-N5-[[2-[4-[(1-ethyl-4-piperidyl)oxy]phenyl]thiazol-5-yl]methyl]-2-methyl-1,1-dioxo-1,2,6-thiadiazinane-3,5-dicarboxamide] |  | 50 to 100 nM |
| CN1C(C(=O)Nc2ccc(F)c(Cl)c2)CC(C(=O)NCc2cnc(-c3ccc(OCCN4CCCCC4)cc3)s2)NS1(=O)=O (single isomer, unassigned) [Compound 922-ISOMER-A, N3-(3-chloro-4-fluoro-phenyl)-2-methyl-1,1-dioxo-N5-[[2-[4-[2-(1-piperidyl)ethoxy]phenyl]thiazol-5-yl]methyl]-1,2,6-thiadiazinane-3,5-dicarboxamide] | 100 to 10000 nM |  |
| CN1C(C(=O)Nc2ccc(F)c(Cl)c2)CC(C(=O)NCc2cnc(-c3ccc(O)cc3)s2)NS1(=O)=O (single isomer, unassigned) [Compound 924-ISOMER-B, N3-(3-chloro-4-fluoro-phenyl)-N5-[[2-(4-hydroxyphenyl)thiazol-5-yl]methyl]-2-methyl-1,1-dioxo-1,2,6-thiadiazinane-3,5-dicarboxamide] | < 50 nM |  |
| CN1C(C(=O)Nc2ccc(F)c(Cl)c2)CC(C(=O)NCc2cnc(-c3ccc(OCCCN4CCSCC4)cc3)s2)NS1(=O)=O (single isomer, unassigned) [Compound 925-ISOMER-A, N3-(3-chloro-4-fluoro-phenyl)-2-methyl-1,1-dioxo-N5-[[2-[4-(3-thiomorpholinopropoxy)phenyl]thiazol-5-yl]methyl]-1,2,6-thiadiazinane-3,5-dicarboxamide] | < 50 nM |  |
